The subject of data set [1] is HCT116 (human colon cancer cells), RAW264.7 (mouse macrophages), BV-2 (mouse microglia). The data set can be described thus: Confocal imaging with HKSOX-1r of O2^•− induced by mitochondrial respiratory inhibitors. Type of data set: cell-based. The method, then:
To validate the inhibitor effects, three different types of cell were used: HCT116 (human colon cancer cells), RAW264.7 (mouse macrophages), and BV-2 (mouse microglia).
(§1) In each group, upper: fluorescence images; lower: fluorescence images merged with bright field images.
(left) Untreated cells incubated with probe alone for 30 min. (right) Cells co-incubated with probe and antimycin A (5 μM) for 30 min. Upper: fluorescence images; lower: fluorescence images merged with bright field images.

Data set [2] relates to Hela (human cervical epithelial cancer cells), BV-2 (mouse microglia), RAW264.7 (mouse macrophages). The data set can be described thus: Confocal imaging with HKSOX-2 of O2^•− induced by mitochondrial respiratory inhibitors. The format is cell-based. Set-up: probe fluorescence response upon induction of mitochondrial O2^•−: dose or concentration left out as unconfirmed. How it is done:
We also tested HKSOX-2 (5 μM) in detection of O2^•− induced by mitochondrial respiratory inhibitors (30 min treatment): antimycin A (complex III inhibitor; 10 μM), rotenone (complex I inhibitor; 10 μM) and FCCP ([…]; 10 μM). To validate the inhibitor effects, three different types of cell were used: Hela (human cervical epithelial cancer cells), BV-2 (mouse microglia), and RAW264.7 (mouse macrophages).
as §1

Data set [3] relates to mouse macrophages (RAW264.7 cells). Kind of data set: Confocal imaging of endogenous O2^•− with HKSOX-2m in PMA-activated macrophages. The format is cell-based. The settings on record: 30 min; for effect on HKSOX-2m fluorescence in PMA-stimulated macrophages: Mdivi-1 100 μM, Gö6983 100 nM. The method, then:
(§2) We assessed the application of HKSOX-2m (2 μM) in confocal imaging of O2^•− in different types of cell. For detection of endogenous O2^•−, two different cell types were used: mouse macrophages (RAW264.7 cells) and mouse microglia (BV-2 cells). PMA (phorbol-12-myristate-13-acetate), a PKC activator and acute O2^•− inducer, was used to activate macrophages. The chemical scavenger TEMPOL (4-hydroxy-TEMPO; 300 μM) was used to remove O2^•− in activated macrophages. Mdivi-1 (100 μM), a Drp-1 (dynamin-related protein 1) inhibitor that inhibits mitochondrial fission and subsequent mitochondrial O2^•− production, was used to block mitochondrial O2^•− formation. Additionally, Gö6983 (100 nM), a PKC inhibitor, was used to abolish PMA-mediated effects in O2^•− induction.

In data set [4] the test system is mouse microglia (BV-2 cells). Kind of data set: Confocal imaging of endogenous O2^•− with HKSOX-2m in PMA-activated microglia. Type of data set: cell-based. The settings on record: 30 min; for effect on HKSOX-2m fluorescence in PMA-stimulated microglia: Mdivi-1 100 μM, Gö6983 100 nM. The method, then: as §2
For data set [5], the system named is RAW264.7 mouse macrophages. The data set can be described thus: Confocal imaging of endogenous O2^•− with HKSOX-1r in LPS/IFN-γ activated macrophages. Type of data set: cell-based. The method, then: We assessed the application of HKSOX-1r in confocal imaging of O2^•− in different types of cell. For detection of endogenous O2^•−, we used mouse macrophages (RAW264.7 cells) as a cellular model. Bacterial lipopolysaccharide (LPS from Salmonella typhimurium; 500 ng/mL) and the proinflammatory cytokine interferon-γ (IFN-γ from mouse; 50 ng/mL) were used to activate macrophages. […] Additionally, the O2^•− decomposition catalyst FeTMPyP (50 μM) and chemical scavenger TEMPOL (4-hydroxy-TEMPO; 300 μM) were used to remove O2^•− in activated macrophages.
The cells were co-stained with mitochondrial dye MitoTracker Red (50 nM) and nuclear DNA dye Hoechst 33342 (150 ng/mL) for 30 min. Merged: all fluorescence images merged. (a) Untreated cells; (b) cells stimulated with LPS (500 ng/mL) and IFN-γ (50 ng/mL) for 14 h, followed by HKSOX-1r staining for 30 min; (c) cells co-treated with LPS/IFN-γ and gp91ds-tat (2 μM) for 14 h, followed by HKSOX-1r staining (30 min); (d) cells stimulated with LPS/IFN-γ for 14 h, followed by co-incubation of HKSOX-1r and FeTMPyP (50 μM) for 30 min; (e) cells stimulated with LPS/IFN-γ for 14 h, followed by co-incubation of HKSOX-1r and TEMPOL (300 μM) for 30 min.

Data set [6] is described as follows: Fluorescence response of probe to O2^•− generated by xanthine/xanthine oxidase and to other oxidants, reductants, esterase and GSH in phosphate buffer. As to conditions: 1 μM probe. The method, then:
The stock solution of HKSOX-1 (10 mM) is diluted in 0.1 M potassium phosphate buffer at pH 7.4 to obtain a 10 μM solution, with excitation and emission spectra at 509 nm and 534 nm, respectively. As expected, the probe HKSOX-1 was non-fluorescent (FIG. 1).
The stock solution of HKSOX-2 (1 mM) is diluted in 0.1 M potassium phosphate buffer at pH 7.4 to obtain a 1 μM solution, with excitation and emission spectra at 535 nm and 562 nm, respectively.

In data set [7] the test system is BV-2 mouse microglial cells. The data set can be described thus: Confocal imaging comparison of HKSOX-2m and MitoSOX Red with multiple superoxide inducers, co-staining with MitoTracker Green and Hoechst. The format is cell-based. The settings on record: for fluorescence with various stimulants: 40 min; for fluorescence turn-on response: Ex 543 nm. The method, then:
To further validate the performance of HKSOX-2m as a mitochondria-targeting superoxide probe, we conducted confocal imaging of HKSOX-2m with multiple superoxide inducers in BV-2 mouse microglial cells (FIG. 11), and compared HKSOX-2m's performance with that of MitoSOX Red™ (a widely used commercial fluorescent probe for mitochondrial superoxide detection; Invitrogen), by using the same drugs as stimulants (FIG. 12). Briefly, BV-2 cells were co-incubated for 40 min with probes (HKSOX-2m or MitoSOX Red™) and general superoxide inducers (PMA and zymosan, which elicit superoxide production from multiple superoxide sources including mitochondria) or specific mitochondrial superoxide inducers (diethyl succinate, diethyl malonate, and rotenone, which target the mitochondrial respiratory chain complexes). […] Slight spatial shifts in fluorescence signal were occasionally observed in the HKSOX-2m and MitoTracker Green channels, which could be accounted for by mitochondrial dynamics and time lag in confocal laser scanning for each channel. […] In fact, fluorescence distribution of the mitochondrial dye MitoTracker Green (Ex 488; Em 505 nm long-pass) was grossly distorted in the presence of MitoSOX Red™ (due to its broad tailing in emission spectrum), resulting in a loss of mitochondrial morphology.

Data set [8] relates to BV-2 mouse microglial cells. As to conditions: MitoSOX Red 5 μM (maximal dose according to manufacturer's protocol), extended incubation; cited from earlier work.
[9] abbreviates: TEMPOL 300 μM, readout HKSOX-2m 2 μM.
Setting [10] is: 30 min, antimycin A, rotenone, FCCP 5 μM, malonic acid 500 μM, readout HKSOX-1r 2 μM.
[11] abbreviates: 30 min, antimycin A, rotenone, FCCP 10 μM, readout HKSOX-2.

Like-named read-outs stand apart in the source and are kept apart here. Where only a bound is given, the exact number is not on record here.

In the case of `N#CC(C#N)=NNc1ccc(OC(F)(F)F)cc1` [FCCP], the “degree of efficacy in inducing mitochondrial O2^•− production (rank order)” value (“degree of efficacy” below) in data set [1] is recorded as “antimycin A>FCCP>>rotenone>>malonic acid”; in data set [2] it was “antimycin A>FCCP>>rotenone”.

Consider `COc1ccc2c(c1)c(C1=C(c3c[nH]c4ccccc34)C(=O)NC1=O)cn2CCCN(C)C` [Gö6983], for which, in data set [3], the “effect on HKSOX-2m fluorescence in PMA-stimulated macrophages” value is listed as “reduced to near basal level”. In data set [4], the “effect on HKSOX-2m fluorescence in PMA-stimulated microglia” value was “reduced to near basal level”.

Take `COC(=O)CN(CC(=O)OC)C(=O)c1ccc2c(c1)C(=O)OC21c2cc(F)c(OS(=O)(=O)C(F)(F)F)c(F)c2Oc2c1cc(F)c(OS(=O)(=O)C(F)(F)F)c2F` [HKSOX-1r]: the “probe fluorescence in stimulated macrophages relative to untreated ones” value in data set [5] (HKSOX-1r 2 μM, 30 min staining, LPS 500 ng/mL and IFN-γ 50 ng/mL for 14 h) was “much stronger fluorescence signals”. Moreover, in data set [1] (HKSOX-1r at 2 μM, 30 min), the “probe fluorescence response upon induction of mitochondrial O2^•−” value is reported as “strong fluorescence response”.

For the compound `CCOC(=O)CCCN1c2cc3c(cc2C(C)CC1(C)C)C1(OC(=O)c2ccccc21)c1cc(F)c(OS(=O)(=O)C(F)(F)F)c(F)c1O3` (stereo not drawn) [HKSOX-2], the “enhancement in fluorescence intensity upon O2^•−” value in data set [6] (10 equiv of O2^•− generated by X/XO system, 15 min, pH 7.4) is reported as above 23 fold. Further, the “increase in fluorescence signals by other oxidants, reductants, esterase and GSH” value in data set [6] (10 equiv of H2O2, NO, 1O2, ROO•, TBHP, •OH, ONOO−, HOCl, Fe2+, ascorbic acid, 1,4-hydroquinone, esterase 10 U/mL, GSH 5 mM) was “negligible increase”. For the same compound, the “probe fluorescence response upon induction of mitochondrial O2^•−” value in data set [2] (30 min) is given as “strong fluorescence response”.

Regarding `CC1CC(C)(C)N(CCCC(=O)N2CCN(C(=O)CCCC[P+](c3ccccc3)(c3ccccc3)c3ccccc3)CC2)c2cc3c(cc21)C1(OC(=O)c2ccccc21)c1cc(F)c(OS(=O)(=O)C(F)(F)F)c(F)c1O3` (stereo not drawn) [HKSOX-2m], the “probe fluorescence in PMA-stimulated macrophages relative to untreated ones” value in data set [3] (HKSOX-2m 2 μM, PMA 200 ng/mL) was “much stronger fluorescence signals”. Also, in data set [4] (HKSOX-2m 2 μM, PMA 200 ng/mL), the “probe fluorescence in PMA-stimulated microglia relative to untreated ones” value was “much stronger fluorescence signals”. Moreover, the “fluorescence with various stimulants” value in data set [7] (HKSOX-2m 2 μM, PMA, zymosan, diethyl succinate, diethyl malonate, rotenone) was “moderate to strong fluorescence”. Also, in data set [7] (HKSOX-2m working dose 2 μM, Em 559-623 nm band-pass), the fluorescence turn-on response entry is listed as “highly efficient”.

As for `COc1cc(-n2c(=S)[nH]c3ccccc3c2=O)c(Cl)cc1Cl` [Mdivi-1], the “effect on HKSOX-2m fluorescence in PMA-stimulated macrophages” value in data set [3] was “reduced to near basal level”. Further, in data set [4], the “effect on HKSOX-2m fluorescence in PMA-stimulated microglia” value is listed as “reduced to near basal level”.

Consider `Nc1ccc2c(c1)C(c1ccccc1)N(CCCCCC[P+](c1ccccc1)(c1ccccc1)c1ccccc1)c1cc(N)ccc1-2.[I-]` (stereo not drawn) [MitoSOX Red™], for which the “toxicity of the working dose” value in data set [7] (MitoSOX Red 4 μM) is given as “near-toxic”. Also, the “fluorescence with various stimulants” value in data set [7] (MitoSOX Red 4 μM, same stimulants) is “low to moderate fluorescence”. Besides, in data set [7] (MitoSOX Red working dose 4 μM), the fluorescence turn-on response entry is “rather sluggish”. Further, in data set [8], the “toxicity of the maximal dose” value is “cytotoxic”.

Turning to `CC1(C)CC(O)CC(C)(C)N1[O]` [TEMPOL, 4-hydroxy-TEMPO], the “effect on HKSOX-1r fluorescence in LPS/IFN-γ activated macrophages” value in data set [5] (FeTMPyP 50 μM or TEMPOL 300 μM co-incubated with HKSOX-1r for 30 min) was “substantially attenuated”. The “effect on the PMA-induced surge in O2^•− production” value in data set [3] (setting [9]) and in data set [4] (setting [9]) was “greatly suppressed” throughout.

Regarding `O=C(O)CC(=O)O` [malonic acid], the “degree of efficacy” value in data set [1] (setting [10]) is given as “antimycin A>FCCP>>rotenone>>malonic acid”.

For `C=C(C)[C@H]1Cc2c(ccc3c2O[C@@H]2COc4cc(OC)c(OC)cc4[C@@H]2C3=O)O1` [rotenone], the “degree of efficacy” value is given as “antimycin A>FCCP>>rotenone>>malonic acid” in data set [1] (setting [10]) and “antimycin A>FCCP>>rotenone” in data set [2] (setting [11]).

As for antimycin A, the “degree of efficacy” value is recorded as “antimycin A>FCCP>>rotenone>>malonic acid” in data set [1] (setting [10]) and “antimycin A>FCCP>>rotenone” in data set [2] (setting [11]).

The values are drawn from patent US11585819B2, “Bistrifilate-based fluorogenic probes for detection of superoxide anion radical” (THE UNIVERSITY OF HONG KONG, priority 2014, dated 2023).
